This experiment concerns the target Vasopressin V1a receptor (Homo sapiens, UniProt P37288). Nature of the experiment: Antagonist activity at vasopressin V1A receptor (unknown origin) assessed as calcium level. Format: functional.

SMILES strings stand for the structures.

Vasopressin V1a receptor, sequence (P37288 whole entry): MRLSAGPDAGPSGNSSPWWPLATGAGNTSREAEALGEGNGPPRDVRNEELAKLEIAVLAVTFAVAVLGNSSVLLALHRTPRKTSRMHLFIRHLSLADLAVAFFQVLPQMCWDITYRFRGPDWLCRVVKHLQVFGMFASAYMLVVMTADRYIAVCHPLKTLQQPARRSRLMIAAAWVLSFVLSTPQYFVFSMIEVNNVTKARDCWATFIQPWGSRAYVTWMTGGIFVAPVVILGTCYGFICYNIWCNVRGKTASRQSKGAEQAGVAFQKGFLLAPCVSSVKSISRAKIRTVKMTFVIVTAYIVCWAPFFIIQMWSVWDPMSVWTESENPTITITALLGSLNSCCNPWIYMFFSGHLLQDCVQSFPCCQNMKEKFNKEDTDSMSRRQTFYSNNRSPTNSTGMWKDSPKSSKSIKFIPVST

Regarding `Cc1cc(C(=O)N2Cc3cnn(C)c3Nc3ccccc32)ccc1CNC(=O)N1C[C@H](OCCO)C[C@H]1C(=S)N(C)C`, the IC50 amounted to 585 nM.

Take `Cc1cc(C(=O)N2Cc3cnn(C)c3Nc3ccccc32)ccc1CNC(=O)N1C[C@H](OCc2cc(O)cc(O)c2)C[C@H]1C(=S)N(C)C`: the IC50 was found to be 2430 nM.

Usually IC50 stands for the concentration needed to halve the response being measured.
